2 compounds from the NIST ThermoML archive (doi:10.1016/j.fluid.2010.02.043) can be followed below.

For the data set the following is noted: Liquid, Ebulliometric method (Recirculating still).

± gives the expanded uncertainty stated by the source.

With `CSSC` [2,3-dithiabutane], the “vapor or sublimation pressure” value (332.19 K) worked out at 18.2 ± 0.4 kPa; the “vapor or sublimation pressure” value (346.26 K) amounted to 31.1 ± 0.4 kPa; the “vapor or sublimation pressure” value (354.42 K) is 41.7 ± 0.4 kPa; the “vapor or sublimation pressure” value (362.18 K) is on record as 53.9 ± 0.4 kPa; the “vapor or sublimation pressure” value (366.46 K) came to 61.9 ± 0.4 kPa; the “vapor or sublimation pressure” value (371.63 K) is recorded as 72.9 ± 0.4 kPa. The “vapor or sublimation pressure” value runs as follows: (375.04 K) 81.1 ± 0.4 kPa; (378.75 K) 90.9 ± 0.4 kPa; (382.02 K) 100.6 ± 0.5 kPa.
As to `CCSSCC` [3,4-dithiahexane], the “vapor or sublimation pressure” value (366.97 K) was determined as 15.8 ± 0.4 kPa; the “vapor or sublimation pressure” value (378.82 K) was 24.1 ± 0.4 kPa; the “vapor or sublimation pressure” value (387.59 K) is on record as 32.3 ± 0.4 kPa; the “vapor or sublimation pressure” value (397.84 K) is 44.4 ± 0.4 kPa; the “vapor or sublimation pressure” value (403.31 K) was 52.8 ± 0.4 kPa; the “vapor or sublimation pressure” value (408.91 K) was 62.2 ± 0.4 kPa. The “vapor or sublimation pressure” value (413.59 K) is given as 71.1 ± 0.4 kPa, the “vapor or sublimation pressure” value (418.73 K) is on record as 82.1 ± 0.4 kPa, the “vapor or sublimation pressure” value (422.25 K) came out at 90.5 ± 0.4 kPa and the “vapor or sublimation pressure” value (426.39 K) was 100.7 ± 0.4 kPa.
